Patent US20110105515A1, “TARGETING THE ONCOPROTEIN NUCLEOPHOSMIN” (President and Fellows of Harvard College, priority 2007, published 2011)
Entries after “also recorded” stand apart in the source; their conditions may differ. One block for each compound: values may come before it.

Legend:
nucleophosmin [1] = molecular target: T1, nucleophosmin (Homo sapiens, UniProt P06748); test: Competitive binding affinity-isolation with probe 5 in T-47D lysates, nucleophosmin; conditions: for inhibition of binding of nucleophosmin to probe 5 by analogues (FIG. 4): T-47D nuclear-enriched lysate
exportin-1 (XPO1) = molecular target: T2, exportin-1 (XPO1) (Homo sapiens, UniProt O14980); test: Competitive binding affinity-isolation with probe 5 in T-47D lysates, exportin-1; conditions: 10 μM probe 5, 100 μM inhibitor
T2 construct: endogenous in cells; host or cells: T-47D lysate
Text: (§1) The supernatant was discarded.
(§2) See above for solution preparation.

peroxiredoxin 1 (PRX1) = molecular target: T3, peroxiredoxin 1 (PRX1) (Homo sapiens, UniProt Q06830); test: Competitive binding affinity-isolation with probe 5 in T-47D lysates, peroxiredoxin 1; conditions: 10 μM probe 5, 100 μM inhibitor
T3 construct: endogenous in cells; host or cells: T-47D lysate
Text: as §1, §2

T-47D cells = test: Antiproliferative assay (CellTiter-Blue), T-47D cells; type: cell-based, human; conditions: 72-h incubation
Experimental: G. Antiproliferative Assays. […] The cell suspension was diluted to 1.0×10^5 cells/mL. A multichannel pipette was used to load the wells of a 96-well plate with 100 μL per well of the diluted cell suspension. […] The following day, 100-μg portions of the nitrone samples were removed from the freezer, thawed, and dissolved in filter-sterilized DMSO to a concentration of 5 mM. A 6.5-μL aliquot of the nitrone solution was dissolved in 643.5 μL of medium to achieve a working concentration of 50 μM. Serial dilutions were employed to generate a range of different concentrations for analysis. Finally, 100-μL aliquots of this diluted nitrone solution were added to the wells containing adhered cells, resulting in final assay concentrations of up to 25 μM. The treated cells were incubated for 72 h at 37° C. (5% CO2). To each well was added 20 μL of CellTiter-Blue reagent, and the samples were returned to the incubator. Fluorescence (560 nm excitation/590 nm emission) was recorded on a 96-well plate reader following a 4.0-h incubation period (37° C., 5% CO2). Percent growth inhibition was calculated for each well, based upon the following formula: Percent growth inhibition=100×(S−B0)/(Bt−B0); where S is the sample reading, Bt is the average reading for a vehicle-treated population of cells at the completion of the assay, and B0 is the average reading for an untreated population of cells at the beginning of the assay. Each analogue was run a minimum of eight times, over a period of at least two weeks. For each compound, 14 separate concentrations were used in the assay, ranging from 25 μM to 8 nM. The average inhibition at each concentration was plotted against concentration, and a curve fit was generated. […] Final GI50 values reflect the concentrations at which the resulting curves pass through 50 percent inhibition.
The cell suspension was diluted to 1.0×10^5 cells/mL. A multichannel pipette was used to charge the wells of a 96-well plate with 100 μL per well of the diluted cell suspension.
The following day, a 6.5-μL aliquot of nitrone solution, at 5 mM in DMSO, was diluted in 643.5 μL of medium to achieve a working concentration of 50 μM. Serial dilutions were employed to generate a range of different concentrations for analysis. Finally, 100-μL aliquots of the diluted nitrone solutions were added to the wells containing adhered cells, resulting in final assay concentrations of up to 25 μM.
The treated cells were incubated for 72 h at 37° C. (5% CO2). To each well was added 20 μL of CellTiter-Blue reagent, and the samples were returned to the incubator. Fluorescence (560 nm excitation/590 nm emission) was recorded on a 96-well plate reader following a 4.0 h incubation period (37° C., 5% CO2).
Percent growth inhibition was calculated for each well, based upon the following formula:
Percent growth inhibition=100×(S−B0)/(Bt−B0)
where S is the sample reading, Bt is the average reading for a vehicle-treated population of cells at the completion of the assay, and B0 is the average reading for an untreated population of cells at the beginning of the assay.

[2] = test system: MALME-3M and MALME-3 cells; test: Selectivity assay, malignant melanoma MALME-3M versus fibroblast MALME-3; type: cell-based; conditions: MALME-3M versus MALME-3
Experimental: […]. A cell line from a healthy fibroblast from the same patient has also been deposited with the American Type Cell Culture Corporation (ATCC). Fresh stockes of both MALME-3M and MALME-3 from ATCC. Avrainvillamide was test against the two cells lines at the same time, taking all possible precautions to ensure that both sets of samples were treated identically. […] As a measure of cytotoxicity and antiproliferative activity, we calculated both LC50 and LC25 (as an estimate of GI50).
The 9.7-fold selectivity at 25 percent cell death is representative of at least a modest degree of selectivity. For comparison, cytochalsine B and geldanamycin were analyzed in identical experiments. Cytochalasine B is a non-selective cytotoxic agent for which a selectivity factor of 0.2 at 25 percent cell death was observed. Geldanamycin is known to be a potent, selective inhibitor of tumor cell growth for which a selectivity factor of >100 at 25 percent cell death was observed.

[3] = test system: NPM1.3 (nucleophosmin isoform); test: Affinity-isolation of NPM1.3 cysteine to alanine mutants expressed in COS-7 cells with probe 5; conditions: 1 μM probe 5, COS-7 cell lysates
[4] = molecular target: NPM1.3 (nucleophosmin isoform) (Homo sapiens, UniProt P06748, C275A); test: as above; conditions: 1 μM probe 5, COS-7 cell lysates
nucleophosmin [5] = molecular target: T1, nucleophosmin; test: Titration of probe 5-nucleophosmin binding in T-47D whole cell lysate; set-up: endogenous in cells; host or cells: T-47D (live cells, whole-cell lysate, nuclear-enriched lysate); conditions: whole-cell lysates of T-47D cells
Experimental: as §1
A 1-mL aliquot of T-47D whole cell lysate was thawed at 4° C. and diluted with 4 mL wash buffer, to afford a working lysate of 1.5 mg/mL total protein.

proteins of T-47D cells = test: Affinity-isolation from T-47D cells, LC-MS/MS analysis of proteins; conditions: narrower region of the gel; equal concentrations
nucleophosmin [6] = molecular target: T1, nucleophosmin; test: Affinity-isolation from incubations with live T-47D cells, Western-blot detection of nucleophosmin; type: binding; set-up: endogenous in cells; host or cells: T-47D (live cells, whole-cell lysate, nuclear-enriched lysate); conditions: 3 μM 5 versus 9 μM 3, 90 min
Experimental: To identify potential binding proteins, populations of healthy (adherent) T-47D cells were treated with the newly synthesized biotin conjugate 5 or the structurally simpler biotin-containing probe 3, previously studied. As a control, a separate population of cells was treated with the biotin derivative 7, which lacks the unsaturated nitrone function. The treated cells were incubated with probe or control for 90 min at 37° C., then were harvested, washed and lysed. The individual lysates were exposed to an agarose resin to remove nonspecific binding proteins. After centrifugation, the supernatants were then exposed to a streptavidin-agarose resin. This resin was collected by centrifugation and washed. Bound proteins were released by heat-denaturation, separated by SDS-PAGE, and analyzed by LC-MS/MS and Western-blot.
The lysates were transferred to fresh 1.7-mL centrifuge tubes. Each individual sample lysate was treated with 50 μL of washed, well-suspended, two-fold diluted Sepharose resin. […] The supernatant was transferred to a clean 1.7-mL centrifuge tube.
as §1

LNCaP cells = test: Antiproliferative assay (CellTiter-Blue), LNCaP cells; type: cell-based, human; conditions: 72-h incubation
Experimental: G. Antiproliferative Assays. […] The cell suspension was diluted to 1.0×10^5 cells/mL. A multichannel pipette was used to load the wells of a 96-well plate with 100 μL per well of the diluted cell suspension. […] The following day, 100-μg portions of the nitrone samples were removed from the freezer, thawed, and dissolved in filter-sterilized DMSO to a concentration of 5 mM. A 6.5-μL aliquot of the nitrone solution was dissolved in 643.5 μL of medium to achieve a working concentration of 50 μM. Serial dilutions were employed to generate a range of different concentrations for analysis. […] Fluorescence (560 nm excitation/590 nm emission) was recorded on a 96-well plate reader following a 4.0-h incubation period (37° C., 5% CO2). Percent growth inhibition was calculated for each well, based upon the following formula: Percent growth inhibition=100×(S−B0)/(Bt−B0); where S is the sample reading, Bt is the average reading for a vehicle-treated population of cells at the completion of the assay, and B0 is the average reading for an untreated population of cells at the beginning of the assay. […]
The treated cells were incubated for 72 h at 37° C. […] Fluorescence (560 nm excitation/590 nm emission) was recorded on a 96-well plate reader following a 4.0 h incubation period (37° C., 5% CO2).
Percent growth inhibition was calculated for each well, based upon the following formula: […]

nucleophosmin [7] = molecular target: T1, nucleophosmin; test: Affinity-isolation following co-incubation with iodoacetamide; type: binding; set-up: endogenous in cells; host or cells: T-47D (live cells, whole-cell lysate, nuclear-enriched lysate); conditions: 10 μM probe 5, 10 mM iodoacetamide; whole cell lysate
Experimental: Identical affinity-isolation experiments to those described in the previous section were performed, except that iodoacetamide (8 μL of a freshly prepared 500 mM solution in DMSO) was added to one sample: […]

SMILES: CC1(C)C=Cc2c(ccc3c2[N+]([O-])=C2C3=C[C@@]34NC(=O)[C@]5(CCCN5C3=O)C[C@H]4C2(C)C)O1 (single isomer, unassigned; ent-1) [ent-1, (−)-avrainvillamide]
- binding of nucleophosmin to probe 5 in the presence of a 10-fold higher concentration of competitor (nucleophosmin [1]; 10 μM probe 5, 100 μM competitor, nuclear-enriched and whole-cell T-47D lysates): not diminished
- concentration required for inhibition of probe 5-nucleophosmin binding (nucleophosmin [1]; T-47D lysate): 500 µM
- fold higher concentration versus 1 required for inhibition of probe 5-nucleophosmin binding (nucleophosmin [1]; T-47D lysate): ~5 fold
- blocking of the binding of probe 5 to exportin-1 (XPO1) (exportin-1 (XPO1)): capable of blocking
- blocking of the binding of probe 5 to peroxiredoxin 1 (PRX1) (peroxiredoxin 1 (PRX1)): capable of blocking
- fold less potent than (+)-1 as inhibitor of T-47D cell growth (T-47D cells): ~3 fold

SMILES: C=C1[C@@H](C)[C@H]2[C@H](Cc3ccccc3)NC(=O)[C@]23OC(=O)/C=C/[C@H](O)CCC[C@@H](C)C/C=C/[C@H]3[C@@H]1O [Cytochalasine B, reference compound]
- selectivity factor, melanoma cells relative to fibroblast control (LC25, 25 percent cell death, estimate of GI50) [2]: 0.2

SMILES: COC1=C2C[C@@H](C)C[C@H](OC)[C@H](O)[C@@H](C)/C=C(\C)[C@H](OC(N)=O)[C@@H](OC)/C=C\C=C(/C)C(=O)NC(=CC1=O)C2=O [Geldanamycin, reference compound]
- selectivity factor, melanoma cells relative to fibroblast control (LC25, 25 percent cell death, estimate of GI50) [2]: > 100

SMILES: CN(C)c1cccc2c(S(=O)(=O)NCCCCCCCCCCOc3ccc4c(c3)[N+]([O-])=C3C4=C[C@@]45NC(=O)C6(CCCN6C4=O)CC5C3(C)C)cccc12 (some centres unmarked) [compound 4]
- inhibition of the growth of T-47D cells (antiproliferative potency, in words) (T-47D cells): potencies similar to the natural product

- effect of deletion of cys275 on affinity-isolation of NPM1.3 [4]: greatly reduced
- concentration of probe sufficient to afford detectable levels of nucleophosmin (nucleophosmin [5]): 100 to 500 nM
SMILES: CC1(C/C=C/CCCCCCCCOC(=O)CCCC[C@@H]2SC[C@@H]3NC(=O)N[C@@H]32)C=Cc2c(ccc3c2[N+]([O-])=C2C3=C[C@@]34NC(=O)C5(CCCN5C3=O)CC4C2(C)C)O1 (some centres unmarked) [compound 5]
- effect of deletion of cys21 or cys104 on affinity-isolation of NPM1.3 [3]: little effect
- detection of nucleophosmin by LC-MS/MS after affinity isolation (proteins of T-47D cells): detected
- affinity-isolation of nucleophosmin by biotinylated probe (Western-blot) (nucleophosmin [6]): more effectively bound nucleophosmin; also recorded: selectively bind
- inhibition of the growth of T-47D cells (antiproliferative potency, in words) (T-47D cells): potencies similar to the natural product
- inhibition of the growth of T-47D cells (antiproliferative potency, in words) (T-47D cells; listed as biotin-avrainvillamide conjugate): nearly equipotent to (+)-avrainvillamide
- inhibition of the growth of LNCaP cells (antiproliferative potency, in words) (LNCaP cells): somewhat less potent than the dansyl conjugate (4)

SMILES: COCCCCCCCCCCNS(=O)(=O)c1cccc2c(N(C)C)cccc12 [compound 6, reference compound]
- inhibition of the growth of T-47D cells (antiproliferative potency, in words) (T-47D cells): inactive
- inhibition of the growth of LNCaP cells (antiproliferative potency, in words) (LNCaP cells): inactive

- inhibition of binding of nucleophosmin to probe 5 by analogues (FIG. 4) (nucleophosmin [1]): inhibited essentially equivalently
SMILES: CC1(C)C2=[N+]([O-])c3cc(-c4ccccc4)ccc3C2=C[C@@]23NC(=O)C4(CCCN4C2=O)CC13 (some centres unmarked) [compound 8]
- inhibition of the growth of T-47D cells (antiproliferative potency, in words) (T-47D cells): nearly as potent as avrainvillamide

- inhibition of binding of nucleophosmin to probe 5 by analogues (FIG. 4) (nucleophosmin [1]): only partially inhibited
SMILES: CC1(C)C2=[N+]([O-])c3ccc(-c4ccccc4)cc3C2=C[C@@]23NC(=O)C4(CCCN4C2=O)CC13 (some centres unmarked) [compound 9]
- fold less potent than (+)-1 as inhibitor of T-47D cell growth (T-47D cells): 3 fold

- inhibition of binding of nucleophosmin to probe 5 by analogues (FIG. 4) (nucleophosmin [1]): least effectively inhibited
SMILES: CC1(C)C2=[N+]([O-])c3cc(C#Cc4ccccc4)ccc3C2=C[C@@]23NC(=O)C4(CCCN4C2=O)CC13 (some centres unmarked) [compound 10]

- inhibition of binding of nucleophosmin to probe 5 by analogues (FIG. 4) (nucleophosmin [1]): least effectively inhibited
SMILES: CC1(C)C2=[N+]([O-])c3c(cccc3-c3ccccc3)C2=C[C@@]23NC(=O)C4(CCCN4C2=O)CC13 (some centres unmarked) [compound 11]

SMILES: NC(=O)CI [iodoacetamide]
- binding of nucleophosmin to probe 5 in the presence of a 1000-fold excess (nucleophosmin [7]): substantially reduced
